Reference: US20140058103A1, “Inhibitors of PI3K-Delta and Methods of Their Use and Manufacture” (Exelixis, Inc., priority 2010, published 2014)

The molecules below were run against PI3K delta (Homo sapiens, UniProt O00329) (assay: Luciferase-coupled chemiluminescence kinase assay (ATP consumption, KinaseGlo)).
Format: biochemical
Outline: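 ATP consumption measured by KinaseGlo luciferase chemiluminescence after a 2 h reaction at ambient temperature, with ATP at or below the kinase KM. Ten inhibitor concentrations per curve; IC50 from four-parameter nonlinear regression.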

Chain of PI3K delta (O00329 whole entry): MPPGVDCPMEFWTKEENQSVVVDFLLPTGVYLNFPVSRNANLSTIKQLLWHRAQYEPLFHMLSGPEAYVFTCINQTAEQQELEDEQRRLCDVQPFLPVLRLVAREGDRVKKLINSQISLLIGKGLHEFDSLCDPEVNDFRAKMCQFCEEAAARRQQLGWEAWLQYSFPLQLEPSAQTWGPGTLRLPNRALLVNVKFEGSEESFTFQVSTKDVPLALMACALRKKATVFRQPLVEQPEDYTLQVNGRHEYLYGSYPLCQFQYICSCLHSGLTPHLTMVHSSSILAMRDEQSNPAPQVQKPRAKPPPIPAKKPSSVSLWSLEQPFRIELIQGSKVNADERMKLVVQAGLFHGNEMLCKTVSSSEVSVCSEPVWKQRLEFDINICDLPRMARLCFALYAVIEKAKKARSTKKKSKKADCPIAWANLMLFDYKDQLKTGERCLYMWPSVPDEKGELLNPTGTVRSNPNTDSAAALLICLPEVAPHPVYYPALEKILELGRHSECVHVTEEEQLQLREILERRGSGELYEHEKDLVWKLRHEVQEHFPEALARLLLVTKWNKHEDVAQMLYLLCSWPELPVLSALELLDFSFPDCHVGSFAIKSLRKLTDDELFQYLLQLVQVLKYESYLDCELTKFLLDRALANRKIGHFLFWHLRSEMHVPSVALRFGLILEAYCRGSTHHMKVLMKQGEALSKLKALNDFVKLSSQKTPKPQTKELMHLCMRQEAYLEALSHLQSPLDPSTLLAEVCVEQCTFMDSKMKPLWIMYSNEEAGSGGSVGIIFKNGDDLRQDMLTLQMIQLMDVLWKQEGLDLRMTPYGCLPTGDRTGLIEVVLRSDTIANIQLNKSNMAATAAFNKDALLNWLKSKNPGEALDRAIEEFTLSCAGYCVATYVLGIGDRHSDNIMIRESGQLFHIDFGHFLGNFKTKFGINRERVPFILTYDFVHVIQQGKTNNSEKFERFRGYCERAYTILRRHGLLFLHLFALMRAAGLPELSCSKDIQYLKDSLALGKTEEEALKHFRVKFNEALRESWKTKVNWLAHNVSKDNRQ
Chain of PI3K delta (P27986 whole entry partner): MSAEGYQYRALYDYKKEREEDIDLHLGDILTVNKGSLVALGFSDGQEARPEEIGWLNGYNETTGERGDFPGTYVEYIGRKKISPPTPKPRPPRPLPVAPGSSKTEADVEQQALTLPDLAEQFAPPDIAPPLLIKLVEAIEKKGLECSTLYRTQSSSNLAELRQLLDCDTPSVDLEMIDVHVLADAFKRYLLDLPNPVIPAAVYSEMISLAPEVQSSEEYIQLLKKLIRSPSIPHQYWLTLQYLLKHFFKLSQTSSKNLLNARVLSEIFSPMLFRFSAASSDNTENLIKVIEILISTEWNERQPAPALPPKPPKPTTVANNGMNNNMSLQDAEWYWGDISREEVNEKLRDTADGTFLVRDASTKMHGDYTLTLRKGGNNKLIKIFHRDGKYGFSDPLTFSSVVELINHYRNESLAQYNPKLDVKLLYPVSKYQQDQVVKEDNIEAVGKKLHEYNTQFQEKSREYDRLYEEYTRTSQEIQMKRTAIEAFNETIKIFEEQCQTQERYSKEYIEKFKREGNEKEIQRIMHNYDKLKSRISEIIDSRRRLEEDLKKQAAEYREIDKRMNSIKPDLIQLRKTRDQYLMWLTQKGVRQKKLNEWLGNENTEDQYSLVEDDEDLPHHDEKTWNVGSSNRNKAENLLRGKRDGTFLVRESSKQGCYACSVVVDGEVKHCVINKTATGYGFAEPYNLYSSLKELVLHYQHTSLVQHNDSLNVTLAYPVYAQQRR

Row | Structure (SMILES) | IC50 [nM]
1 | Cn1c(-c2cn[nH]c2)nc2c(N3CCC4(CC3)C(=O)Nc3ccccc34)ncnc21 [Compound 238, 1′-[9-methyl-8-(1H-pyrazol-4-yl)-9H-purin-6-yl]spiro[indole-3,4′-piperidin]-2(1H)-one] | < 50
2 | Cn1c(C(=O)NCCCO)nc2c(N3CCC4(CC3)C(=O)Nc3ccccc34)ncnc21 [Compound 19, N-(3-hydroxypropyl)-9-methyl-6-(2-oxo-1,2-dihydro-1′H-spiro[indole-3,4′-piperidin]-1′-yl)-9H-purine-8-carboxamide] | 50 to 250
3 | Cn1c(-c2cnc(N)nc2)nc2c(N3CCC(n4c(=O)[nH]c5ccccc54)CC3)ncnc21 [Compound 305, 1-{1-[8-(2-aminopyrimidin-5-yl)-9-methyl-9H-purin-6-yl]piperidin-4-yl}-1,3-dihydro-2H-benzimidazol-2-one] | < 50
4 | CC(C)CCn1cc(-c2nc3c(N4CCC(n5c(=O)[nH]c6ccccc65)CC4)ncnc3n2C)cn1 [Compound 233, 1-(1-{9-methyl-8-[1-(3-methylbutyl)-1H-pyrazol-4-yl]-9H-purin-6-yl}piperidin-4-yl)-1,3-dihydro-2H-benzimidazol-2-one] | 50 to 250
5 | CC1CC(n2c(=O)[nH]c3ccccc32)CCN1c1ncnc2c1nc(C(=O)NCC1CC1)n2C (centres unmarked) [Compound 277, N-(cyclopropylmethyl)-9-methyl-6-[2-methyl-4-(2-oxo-2,3-dihydro-1H-benzimidazol-1-yl)piperidin-1-yl]-9H-purine-8-carboxamide] | 50 to 250
6 | COc1ccc(OC)c(S(=O)(=O)N2CCN(c3ncnc4c3nc(-c3cnn(C)c3)n4C)CC2)c1 [Compound 376, 6-(4-([2,5-bis(methyloxy)phenyl]sulfonyl}-piperazin-1-yl)-9-methyl-8-(1-methyl-1H-pyrazol-4-yl)-9H-purine] | 250 to 500
7 | CCn1cc(-c2nc3c(N4CCC(n5c(=O)[nH]c6ccccc65)CC4)ncnc3n2CC)cn1 [Compound 244, 1-{1-[9-ethyl-8-(1-ethyl-1H-pyrazol-4-yl)-9H-purin-6-yl]piperidin-4-yl}-1,3-dihydro-2H-benzimidazol-2-one] | < 50
8 | Cn1c(CNC(=O)OC(C)(C)C)nc2c(N3CCC(n4c(=O)[nH]c5ccccc54)CC3)ncnc21 [Compound 339, 1,1-dimethylethyl ({9-methyl-6-[4-(2-oxo-2,3-dihydro-1H-benzimidazol-1-yl)piperidin-1-yl]-9H-purin-8-yl}methyl)carbamate] | 500 to 1500
9 | COc1cc(C)ccc1S(=O)(=O)N1CCN(c2ncnc3c2nc(-c2cnn(C)c2)n3C)CC1 [Compound 385, 9-methyl-6-(4-{[4-methyl-2-(methyloxy)phenyl]sulfonyl}-piperazin-1-yl)-8-(1-methyl-1H-pyrazol-4-yl)-9H-purine] | 500 to 1500
10 | CCCCc1nnc(-c2nc3c(N4CCC(n5c(=O)[nH]c6ccccc65)CC4)ncnc3n2C)o1 [Compound 232, 1-(1-[8-(5-butyl-1,3,4-oxadiazol-2-yl)-9-methyl-9H-purin-6-yl]piperidin-4-yl)-1,3-dihydro-2H-benzimidazol-2-one] | < 50
11 | Cc1ncc(-c2nc3c(N4CCC(n5c(=O)[nH]c6ccccc65)CC4)ncnc3n2C)n1C [Compound 333, 1-{1-[8-(1,2-dimethyl-1H-imidazol-5-yl)-9-methyl-9H-purin-6-yl]piperidin-4-yl)-1,3-dihydro-2H-benzimidazol-2-one] | < 50
12 | Cn1c(C(=O)NCC2CC2)nc2c(N3CCC(C#N)(c4ccccc4)CC3)ncnc21 [Compound 275, 6-(4-cyano-4-phenylpiperidin-1-yl)-N-(cyclopropylmethyl)-9-methyl-9H-purine-8-carboxamide] | 50 to 250
13 | CCn1cc(-c2nc3c(N4CCC(c5c[nH]c6ccccc56)CC4)ncnc3n2C)cn1 [Compound 366, 8-(1-ethyl-1H-pyrazol-4-yl)-6-[4-(1H-indol-3-yl)piperidin-1-yl]-9-methyl-9H-purine] | 250 to 500
14 | Cn1cc(-c2nc3c(N4CCN(S(=O)(=O)c5ccccc5C#N)CC4)ncnc3n2C)cn1 [Compound 381, 2-({4-[9-methyl-8-(1-methyl-1H-pyrazol-4-yl)-9H-purin-6-yl]piperazin-1-yl}sulfonyl)benzonitrile] | 250 to 500
15 | Cn1cc(-c2nc3c(N4CCN(c5ccc(OCC6CC6)cc5)CC4)ncnc3n2C)cn1 [Compound 360] | 500 to 1500
16 | CN(C)CCOc1cccc2c1[nH]c(=O)n2C1CCN(c2ncnc3c2nc(C(=O)NCC2CC2)n3C)CC1 [Compound 276, N-(cyclopropylmethyl)-6-[4-(4-{[2-(dimethylamino)ethyl]oxy}-2-oxo-2,3-dihydro-1H-benzimidazol-1-yl)piperidin-1-yl]-9-methyl-9H-purine-8-carboxamide] | 250 to 500
17 | CCn1c(-c2cncnc2)nc2c(N3CCC(n4c(=O)[nH]c5ccccc54)CC3)ncnc21 [Compound 294, 1-[1-(9-ethyl-8-pyrimidin-5-yl-9H-purin-6-yl)piperidin-4-yl]-1,3-dihydro-2H-benzimidazol-2-one] | < 50
18 | Cn1c(C(=O)NCC2CC2)nc2c(N3CC[C@H](c4ccccc4)[C@@H](O)C3)ncnc21 [Compound 235, N-(cyclopropylmethyl)-6-[(3R,4R)-3-hydroxy-4-phenylpiperidin-1-yl]-9-methyl-9H-purine-8-carboxamide] | 500 to 1500

Row | Structure (SMILES) | IC50 [nM]
19 | Cn1c(-c2cccnn2)nc2c(N3CCC(n4c(=O)[nH]c5ncccc54)CC3)ncnc21 [Compound 335, 1-[1-(9-methyl-8-pyridazin-3-yl-9H-purin-6-yl)piperidin-4-yl]-1,3-dihydro-2H-imidazo[4,5-b]pyridin-2-one] | 50 to 250
20 | CCn1c(-c2cnn(C)c2)nc2c(N3CCC4(CC3)C(=O)Nc3ccccc34)ncnc21 [Compound 245, 1′-[9-ethyl-8-(1-methyl-1H-pyrazol-4-yl)-9H-purin-6-yl]spiro[indole-3,4′-piperidin]-2(1H)-one] | < 50
21 | CC(C)c1nnc(-c2nc3c(N4CCC5(CC4)C(=O)Nc4ccccc45)ncnc3n2C)o1 [Compound 174, 1′-{9-methyl-8-[5-(1-methylethyl)-1,3,4-oxadiazol-2-yl]-9H-purin-6-yl}spiro[indole-3,4′-piperidin]-2(1H)-one] | < 50
22 | Cc1ccoc1-c1nc2c(N3CCC(n4c(=O)[nH]c5ccccc54)CC3)ncnc2n1C [Compound 128, 1-{1-[9-methyl-8-(3-methylfuran-2-yl)-9H-purin-6-yl]piperidin-4-yl}-1,3-dihydro-2H-benzimidazol-2-one] | 250 to 500
23 | Cn1c(-c2ccc(C(F)(F)F)nc2)nc2c(N3CCC(n4c(=O)[nH]c5ncccc54)CC3)ncnc21 [Compound 315, 1-(1-{9-methyl-8-[6-(trifluoromethyl)pyridin-3-yl]-9H-purin-6-yl}piperidin-4-yl)-1,3-dihydro-2H-imidazo[4,5-b]pyridin-2-one] | < 50
24 | CCn1c(C(=O)NC2CCC2)nc2c(N3CCC(n4c(=O)[nH]c5ccccc54)CC3)ncnc21 [Compound 194, N-cyclobutyl-9-ethyl-6-[4-(2-oxo-2,3-dihydro-1H-benzimidazol-1-yl)piperidin-1-yl]-9H-purine-8-carboxamide] | < 50
25 | Cn1c(-c2ccco2)nc2c(N3CCC(n4c(=O)[nH]c5ccccc54)CC3)ncnc21 [Compound 116, 1-[1-(8-furan-2-yl-9-methyl-9H-purin-6-yl)piperidin-4-yl]-1,3-dihydro-2H-benzimidazol-2-one] | 250 to 500
26 | Cn1c(C(=O)N2CCCC2)nc2c(N3CCC(n4c(=O)[nH]c5ccccc54)CC3)ncnc21 [Compound 68, 1-{1-[9-methyl-8-(pyrrolidin-1-ylcarbonyl)-9H-purin-6-yl]piperidin-4-yl}-1,3-dihydro-2H-benzimidazol-2-one] | 250 to 500
27 | CC(CNC(=O)c1nc2c(N3CCC(n4c(=O)[nH]c5ccccc54)CC3)ncnc2n1C)c1ccccc1 (centres unmarked) [Compound 61, 9-methyl-6-[4-(2-oxo-2,3-dihydro-1H-benzimidazol-1-yl)piperidin-1-yl]-N-(2-phenylpropyl)-9H-purine-8-carboxamide] | 250 to 500
28 | COc1ncc(-c2nc3c(N4CCC(n5c(=O)[nH]c6ccccc65)CC4)ncnc3n2C)cn1 [Compound 310, 1-(1-{9-methyl-8-[2-(methyloxy)pyrimidin-5-yl]-9H-purin-6-yl}piperidin-4-yl)-1,3-dihydro-2H-benzimidazol-2-one] | < 50
29 | Cn1c(C(=O)NC2CCOCC2)nc2c(N3CCC4(CC3)C(=O)Nc3ccccc34)ncnc21 [Compound 86, 9-methyl-6-(2-oxo-1,2-dihydro-1′H-spiro[indole-3,4′-piperidin]-1′-yl)-N-(tetrahydro-2H-pyran-4-yl)-9H-purine-8-carboxamide] | 50 to 250
30 | CCn1c(-c2ccnnc2)nc2c(N3CCC4(CC3)C(=O)Nc3ccccc34)ncnc21 [Compound 316, 1′-(9-ethyl-8-pyridazin-4-yl-9H-purin-6-yl)spiro[indole-3,4′-piperidin]-2(1H)-one] | < 50
31 | CCn1c(C(=O)N2CC[C@@H](F)C2)nc2c(N3CCC4(CC3)C(=O)Nc3ccccc34)ncnc21 [Compound 213] | < 50
32 | CNc1ccc(-c2nc3c(N4CCC(n5c(=O)[nH]c6ccccc65)CC4)ncnc3n2C)cn1 [Compound 353, 1-(1-{9-methyl-8-[6-(methylamino)pyridin-3-yl]-9H-purin-6-yl}piperidin-4-yl)-1,3-dihydro-2H-benzimidazol-2-one] | < 50
33 | Cn1cc(-c2nc3c(N4CCN(S(=O)(=O)Cc5ccccc5)CC4)ncnc3n2C)cn1 [Compound 371, 9-methyl-8-(1-methyl-1H-pyrazol-4-yl)-6-{4-[(phenylmethyl)sulfonyl]piperazin-1-yl)-9H-purine] | 250 to 500
34 | Cn1c(C(=O)N2CCCCC2)nc2c(N3CCC4(CC3)C(=O)NCN4c3ccccc3)ncnc21 [Compound 9, 8-[9-methyl-8-(piperidin-1-ylcarbonyl)-9H-purin-6-yl]-1-phenyl-1,3,8-triazaspiro[4.5]decan-4-one] | 50 to 250
35 | Cc1ccc2[nH]c(=O)n(C3CCN(c4ncnc5c4nc(C(=O)NCC4CC4)n5C)CC3)c2c1 [Compound 206, N-(cyclopropylmethyl)-9-methyl-6-[4-(6-methyl-2-oxo-2,3-dihydro-1H-benzimidazol-1-yl)piperidin-1-yl]-9H-purine-8-carboxamide] | 250 to 500
